The results in this text go back to article PMC2606939 (The Journal of General Physiology, 2009).

The target of experiment [1] is CLC-0 (Torpedo marmorata, UniProt P21564, E166A). The experiment in a line: cell-based.
In experiment [2] the target is CLC-0 (Torpedo marmorata, UniProt P21564, E166G). In words: cell-based.
Chain of CLC-0 (Torpedo marmorata, UniProt P21564, E166G) (P21564 whole entry E166G): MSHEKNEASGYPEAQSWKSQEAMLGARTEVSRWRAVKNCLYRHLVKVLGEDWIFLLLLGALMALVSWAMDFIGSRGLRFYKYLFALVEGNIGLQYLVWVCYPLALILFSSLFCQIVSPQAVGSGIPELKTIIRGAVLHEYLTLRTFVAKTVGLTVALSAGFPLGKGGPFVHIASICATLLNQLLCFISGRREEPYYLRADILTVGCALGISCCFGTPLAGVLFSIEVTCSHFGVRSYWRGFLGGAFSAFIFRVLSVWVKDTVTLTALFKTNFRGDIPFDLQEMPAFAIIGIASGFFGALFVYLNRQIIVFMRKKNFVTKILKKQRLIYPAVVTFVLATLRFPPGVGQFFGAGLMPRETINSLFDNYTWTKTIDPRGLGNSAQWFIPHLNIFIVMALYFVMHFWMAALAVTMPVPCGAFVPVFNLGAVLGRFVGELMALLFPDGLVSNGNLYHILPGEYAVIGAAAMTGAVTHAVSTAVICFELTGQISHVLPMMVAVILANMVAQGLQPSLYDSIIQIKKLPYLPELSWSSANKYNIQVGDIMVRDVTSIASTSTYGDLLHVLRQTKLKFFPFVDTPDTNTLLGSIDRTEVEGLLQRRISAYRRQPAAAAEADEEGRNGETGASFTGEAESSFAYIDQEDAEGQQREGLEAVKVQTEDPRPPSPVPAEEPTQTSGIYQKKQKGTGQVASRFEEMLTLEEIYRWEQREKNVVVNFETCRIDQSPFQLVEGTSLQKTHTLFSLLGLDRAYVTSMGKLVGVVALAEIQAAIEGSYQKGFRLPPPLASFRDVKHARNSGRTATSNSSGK

Chain of CLC-0 (Torpedo marmorata, UniProt P21564, E166A) (P21564 whole entry E166A): as the sequence (P21564 whole entry E166G) above, with G166A counted along it

Usually IC50 stands for the midpoint of a concentration-inhibition curve. A high value points to a need for much substance. Turning to `CCCCCCCC(=O)O` [OA, octanoate], the IC50 against CLC-0 [1] turned out to be 120 ± 20 µM; against CLC-0 [2] it was 160 ± 10 µM.
